Test results as given in patent EP0417840B1, “Antiviral tetrahydroimidazo [1,4]-benzodiazepines” (JANSSEN PHARMACEUTICA N.V., priority 1989, dated 1991).
In brackets after ≈: the same amount, converted by molar mass.

Key:
in vitro = format: cell-based; conditions: human, mt-4 cells
Description: (§1) A rapid, sensitive and automated assay procedure was used for the in-vitro evaluation of anti-HIV agents. An […] T4-cell line, MT-4, which was previously shown (Koyanagi et al., Int. J. Cancer, 36, 445-451, 1985) to be highly susceptible to and permissive for HIV infection, served as the target cell line. Inhibition of the HIV-induced cytopathic effect was used as the end point. The viability of both HIV- and mock-infected cells was assessed spectrophotometrically via the in-situ reduction of 3-(4,5-dimethylthiazol-2-yl)-2,5-diphenyltetrazolium bromide (MTT). The 50% cytotoxic dose (CD₅₀ in µg/ml) was defined as the concentration of compound that reduced the absorbance of the mock-infected control sample by 50%. The percent protection achieved by the compound in HIV-infected cells was calculated by the following formula: [formula] whereby (ODT)HIV is the optical density measured with a given concentration of the test compound in HIV-infected cells; (ODC)HIV is the optical density measured for the control untreated HIV-infected cells; (ODC)MOCK is the optical density measured for the control untreated mock-infected cells; all optical density values were determined at 540 nm. The dose achieving 50% protection according to the above formula was defined as the 50% effective dose (ED₅₀ in µg/ml). The ratio of CD₅₀ to ED₅₀ was defined as the selectivity index (SI).

HIV = experiment: Anti-HIV assay: inhibition of the HIV-induced cytopathic effect in MT-4 cells (MTT); format: cell-based; conditions: for EC50: Human immunodeficiency virus 1, MT4, dose achieving 50% protection of HIV-infected MT-4 cells, MTT, 540 nm, read-out: ED₅₀ (50% effective dose); for SI (selectivity index): ratio of CD₅₀ to ED₅₀
Description: as §1

Compound	CC50 (in vitro)	EC50 (HIV)	SI (selectivity index) (HIV)
CCCN1CCn2c(=S)[nH]c3cccc(c32)C1C (stereo not drawn) [Compound 2, 4,5,6,7-tetrahydro-7-methyl-6-propylimidazo[4,5,1-jk] [1,4]benzodiazepin-2(1H)-thione]	129 µg/mL (≈ 494 µM)	0.5 µg/mL (≈ 1.91 µM)	258
CC(C)=CCN1[C@H](C)Cn2c(=S)[nH]c3cccc(c32)[C@@H]1C (relative stereo) [Compound 5, cis-4,5,6,7-tetrahydro-5,7-dimethyl-6-(3-methyl-2-butenyl)imidazo[4,5,1-jk][1,4]benzodiazepine-2(1H)thione]	23 µg/mL (≈ 76.3 µM)	0.24 µg/mL (≈ 0.796 µM)	96
CC(C)=CCN1CCn2c(=S)[nH]c3cccc(c32)C1C (stereo not drawn) [Compound 3]	177 µg/mL (≈ 616 µM)	0.1 µg/mL (≈ 0.348 µM)	1770
CC(C)=CCN1[C@H](C)Cn2c(=S)[nH]c3cccc(c32)[C@H]1C (relative stereo) [Compound 6, trans-4,5,6,7-tetrahydro-5,7-dimethyl-6-(3-methyl-2-butenyl)imidazo[4,5,1-jk][1,4]benzodiazepine-2(1H)-thione]	23 µg/mL (≈ 76.3 µM)	0.0048 µg/mL (≈ 0.0159 µM)	4838
